# Columns and labels:
# [1] = target: T1, Protein cereblon/Stimulator of interferon genes protein (Homo sapiens, UniProt Q96SW2+Q86WV6); test: Protac activity at CRBN/STING in human THP-1 cells assessed as increase in STING degradation at 10 uM incubated for 48 hrs by Western blot analysis relative to control; type: cell-based
# Target sequence in this assay (Q86WV6 whole entry, looked up): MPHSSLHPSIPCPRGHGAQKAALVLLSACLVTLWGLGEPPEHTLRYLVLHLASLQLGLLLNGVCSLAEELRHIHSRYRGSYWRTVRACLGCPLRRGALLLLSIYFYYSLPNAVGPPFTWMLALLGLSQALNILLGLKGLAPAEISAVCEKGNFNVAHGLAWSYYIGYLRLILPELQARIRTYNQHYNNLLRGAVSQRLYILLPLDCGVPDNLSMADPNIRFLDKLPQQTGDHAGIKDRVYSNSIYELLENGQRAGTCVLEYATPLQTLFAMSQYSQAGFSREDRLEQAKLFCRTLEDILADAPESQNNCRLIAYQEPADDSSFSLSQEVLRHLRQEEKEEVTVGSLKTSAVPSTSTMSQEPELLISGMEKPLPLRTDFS
# Target sequence in this assay (Q96SW2 whole entry, looked up): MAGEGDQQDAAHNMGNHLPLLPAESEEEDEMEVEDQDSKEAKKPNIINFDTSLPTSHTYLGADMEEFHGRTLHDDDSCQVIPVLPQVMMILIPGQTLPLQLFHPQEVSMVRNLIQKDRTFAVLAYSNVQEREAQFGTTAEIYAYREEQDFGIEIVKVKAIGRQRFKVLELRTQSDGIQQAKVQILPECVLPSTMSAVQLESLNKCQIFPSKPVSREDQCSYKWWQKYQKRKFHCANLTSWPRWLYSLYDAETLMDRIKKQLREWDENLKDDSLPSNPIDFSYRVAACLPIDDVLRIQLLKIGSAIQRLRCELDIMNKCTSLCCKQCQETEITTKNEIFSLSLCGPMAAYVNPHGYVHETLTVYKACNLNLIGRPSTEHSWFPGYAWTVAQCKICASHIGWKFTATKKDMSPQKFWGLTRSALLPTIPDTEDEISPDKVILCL
# [2] = target: T1, Protein cereblon/Stimulator of interferon genes protein; test: Protac activity at CRBN/STING in human THP-1 cells assessed as increase in STING degradation incubated for 48 hrs by Western blot analysis; type: cell-based
# Target sequence in this assay (Q96SW2 whole entry): as the sequence (Q96SW2 whole entry, looked up) above
# Target sequence in this assay (Q86WV6 whole entry): as the sequence (Q86WV6 whole entry, looked up) above
# L02 = test: Cytotoxicity against human L02 cells assessed as reduction in cell viability at <10 uM by MTT assay; type: toxicity, cell-based; conditions: l02, 10 µM
# [3] = Cytotoxicity against HEK293-A cells assessed as reduction in cell viability at <10 uM by MTT assay; type: toxicity, cell-based; conditions: human
# [4] = Cytotoxicity against mouse C17.2 cells assessed as reduction in cell viability at <10 uM by MTT assay; type: toxicity, cell-based; conditions: c17.2, 10 µM
smiles,measurement,setting,value
O=C(/C=C/C(=O)Nc1ccc(NC(=O)c2ccc([N+](=O)[O-])o2)cc1)NCCCCNc1cccc2c1C(=O)N(C1CCC(=O)NC1=O)C2=O (stereo not given),Activity,[1],22%
same,DC50,[2],> 10 µM
same,Activity,L02,Non-Toxic
same,Activity,[3],Non-Toxic
same,Activity,[4],Non-Toxic
